Values of other authors, collected in patent US10858659B2, “Biosynthetic gene cluster of carrimycin” (SHENYANG FUYANG PHARMACEUTICAL TECHNOLOGY CO., LTD., priority 2015, dated 2020).

Assays:
[1] = in vivo

Carrimycin
in-vivo retention time: long | absolute bioavailability (in vivo): high | elimination half-life (in vivo): long | tissue concentration compared with blood plasma concentration (in vivo): higher than blood plasma concentration | tissue distribution (in vivo): wide | tissue penetrability (in vivo): high | oral administration absorption speed (in vivo, po): high | adverse reaction rate [1]: low | injury to livers [1]: little | safety [1]: good
